Data: article PMC5841303, “In silico screening for human norovirus antivirals reveals a novel non-nucleoside inhibitor of the viral polymerase” (Scientific Reports, 2018)

How the values were obtained:
norovirus RdRp = assay: Counter-screen gel-shift RdRp assay (primed elongation of PE44-NoV template); assay type: biochemical, human norovirus; settings: fixed concentration of 100 µM
Procedure: In this assay, a 32 nucleotide RNA template (PE44-NoV) is extended to 44 nucleotides in the presence of an active RdRp[16]. […] Inhibition of primed elongation of the PE44-NoV template was examined at a fixed concentration of 100 µM (Fig. 4D). In the absence of inhibition (0.5% DMSO vehicle only) the RNA template was extended to 44 nucleotides (Fig. 4D), evidenced by an upward gel shift and the appearance of the second, higher band.
(§1) Fluorescent RdRp activity assays were carried out as previously described[14],[62]. Briefly, RdRp activity was quantified by monitoring the formation of double-stranded RNA (dsRNA) from a single stranded homopolymeric template, poly(C) (Sigma Aldrich, St Louis, MO, USA), using the fluorescent dye PicoGreen (Life Technologies, Carlsbad, CA, USA). RdRp assays were performed in 384-well plates, and each reaction mixture contained 400 ng enzyme, 45 µM GTP, 10 ng/µL poly(C) RNA, 2.5 mM MnCl2, 5 mM dithiothreitol, (DTT), 0.01% bovine serum albumin (BSA), and 0.005% Tween 20 in 20 mM Tris-HCl, pH 7.5, with a final reaction volume of 25 µL. The previous published norovirus NNI NIC02 was used as a positive control. RdRps were incubated for 10 mins at 30 °C in the presence of the test compounds or the compound vehicle DMSO (0.5% vol/vol) before addition into the reaction mixture, which was then allowed to run 15 min at 30 °C then terminated with 10 mM EDTA, followed by PicoGreen staining and dsRNA quantitation. GraphPad Prism V6.05 (La Jolla, CA, USA) was used to plot the IC50 values. In cases where fluorescent enhancement was recorded for a compound instead of inhibition, a secondary gel-based polymerase activity assay was used as a counter-screen as described below, to exclude the possibility of RdRp activity enhancement (Supplementary Fig. S1). Primed elongation activity was examined in a gel-based assay as previously described[16],[63] using the RNA template (PE44-NoV, Fig. 4D). Gels were imaged using BioRad (Hercules, CA, U.SA) Geldoc Universal Hood II, running BioRad Image Lab software, V4.1, build 16. Antagonism was calculated using Compusyn software V1.0[59]. 54 and PPNDS (4:1 ratio) were tested alone and together against norovirus Sydney 2012 RdRp.

R419A norovirus RdRp = biological target: T1, R419A norovirus RdRp (Norovirus GII.4 (Norwalk virus, human norovirus), UniProt K4L8Z7, R1608A); assay: Fluorescent RdRp assay, R419A mutant RdRp; assay type: biochemical; settings: 0.1–100 µM
T1 sequence (K4L8Z7 1190-1699 R1608A): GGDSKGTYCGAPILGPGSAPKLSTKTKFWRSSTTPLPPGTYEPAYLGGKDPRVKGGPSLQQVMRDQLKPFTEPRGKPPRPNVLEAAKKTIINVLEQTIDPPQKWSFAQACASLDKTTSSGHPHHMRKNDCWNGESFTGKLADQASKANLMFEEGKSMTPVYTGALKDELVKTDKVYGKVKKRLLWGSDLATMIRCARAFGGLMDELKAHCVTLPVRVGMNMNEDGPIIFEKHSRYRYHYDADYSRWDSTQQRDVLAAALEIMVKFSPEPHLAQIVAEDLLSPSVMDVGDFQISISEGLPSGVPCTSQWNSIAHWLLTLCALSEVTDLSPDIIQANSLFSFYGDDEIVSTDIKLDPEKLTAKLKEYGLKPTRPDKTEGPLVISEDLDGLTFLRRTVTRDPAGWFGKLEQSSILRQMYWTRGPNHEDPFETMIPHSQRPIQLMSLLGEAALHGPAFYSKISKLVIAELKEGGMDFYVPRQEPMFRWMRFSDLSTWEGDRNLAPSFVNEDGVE
Excerpt: Given the evidence of 54 being a site-B binding NNI, residues Q414 and R419 were mutated to alanine. These residues were previously shown by our research group and others to be critical for human norovirus RdRp site-B binding NNIs, and can create resistance to the drug through their mutagenesis[16],[17],[39]. After the mutant RdRps’ transcriptional activity was confirmed in a fluorescent RdRp assay (Q414A: 54%, R419A: 34% of wild-type activity, respectively), dose-response curves for 54 (0.1–100 µM) were produced to compare the IC50 values between the wild-type RdRp and the two mutant RdRps, Q414A and R419A (Fig. 13B). […]
Fluorescent RdRp activity assays were carried out as previously described[14],[62]. Briefly, RdRp activity was quantified by monitoring the formation of double-stranded RNA (dsRNA) from a single stranded homopolymeric template, poly(C) (Sigma Aldrich, St Louis, MO, USA), using the fluorescent dye PicoGreen (Life Technologies, Carlsbad, CA, USA). […] RdRps were incubated for 10 mins at 30 °C in the presence of the test compounds or the compound vehicle DMSO (0.5% vol/vol) before addition into the reaction mixture, which was then allowed to run 15 min at 30 °C then terminated with 10 mM EDTA, followed by PicoGreen staining and dsRNA quantitation. […] Antagonism was calculated using Compusyn software V1.0[59]. […]

MNV = MNV plaque reduction assay in cell culture; assay type: cell-based, murine norovirus
Procedure: As mentioned above, the only robust cellular assay available for the evaluation of potential norovirus inhibitors is the closely related MNV assay. […] Consequently, 54 was further assessed to determine the IC50 value against MNV RdRp activity using an in vitro fluorescent assay. […] 54 was then assessed for cytotoxicity against RAW264.7 mouse macrophage cells using a cell viability assay. […] Using the plaque reduction assay, the inhibitory effects of 54 (0.5–50 µM) were examined against MNV plaque formation in cell culture. […] Compound solubility and its cell-membrane permeability properties could be further improved with structure-activity relationship enhancement of the 54 scaffold to facilitate cellular uptake, and therefore to increase antiviral efficacy. Work on this aspect is ongoing, and it will be reported in due course.
MNV-1 (CW1) culture assays were performed as previously described. Replication was examined using plaque assays[58],[64],[65]. Cytotoxicity was examined using a CellTitre Blue (Promega, Madison, WI, USA) viability assay as described previously.

[1] = biological target: human norovirus Sydney 2012 RdRp (Norovirus GII.4 (Norwalk virus, human norovirus), UniProt K4L8Z7); assay: Combinational study of 54 and PPNDS (Compusyn combination index); assay type: biochemical; settings: 54 with PPNDS, 4:1 ratio
Procedure: Despite the minimal activity in the cell culture system, RdRp inhibition by 54 is an important finding in the search of novel norovirus inhibitors. […] PPNDS (0.025–25 µM) and 54 (0.1–100 µM) were examined alone and together in a 1:4 ratio respectively (Fig. 13A), and the average of the combination indices at 50% (1.6), 75% (1.7) and 90% (1.8) inhibition was 1.7.
as §1

## O=C1NN(c2ccccc2)C(=O)/C1=C/c1ccc(-c2ccc(S(=O)(=O)Nc3ccccc3)cc2)o1 [Compound 54]
Norovirus RdRp
  inhibition of primed elongation activity (gel-shift): near complete abolishment of norovirus RdRp activity
R419A norovirus RdRp
  IC50: 10.2 µM
MNV; 50 µM, RAW264.7 cells
  cytotoxicity seen in plaque assay: RAW264.7 cells thinning
MNV; 0.5–50 µM, read-out: EC50 against MNV in cell culture (plaque reduction)
  EC50: > 50 µM
MNV; up to 25 µM
  effect on plaque numbers: no appreciable effect
[1]
  combination index at 50% inhibition: 1.6
  combination index at 75% inhibition: 1.7
  combination index at 90% inhibition: 1.8
[1]; average over 50%, 75% and 90% inhibition
  average combination index: 1.7
